“Also recorded” adds a separate entry of the source. Structures can show the parent of a compound that is named as a salt.
Tests used:
VeroE6 cells = assay: Cellular bismuth uptake; type: cell-based, African green monkey; conditions: 24 hours, ICP-MS
SARS-CoV-2 Omicron BA.5 = assay: Viral load reduction assay; type: cell-based; conditions: Fig. S7
SARS-CoV-2 = conditions: read-out: EC50 (antiviral activity); previously reported; cited from earlier work

SMILES: Nc1ccc([O-])c(=O)cc1.Nc1ccc([O-])c(=O)cc1.Nc1ccc([O-])c(=O)cc1.[Bi+3] [Bi(Tro-NH2)3, Bi(5-aminotropolonate)3]
- cellular uptake of Bi(III) (VeroE6 cells): poor cellular uptake of Bi(III)
- antiviral activity in virus-infected cells (SARS-CoV-2 Omicron BA.5): did not show antiviral activity as good as that at the enzyme level; also recorded: did not show potent antiviral activity in virus-infected cells

SMILES: CNC(=C[N+](=O)[O-])NCCSCc1ccc(CN(C)C)o1 [RBC, ranitidine bismuth citrate]
- EC50 (SARS-CoV-2): 2300 nM

— PMC11220592 (Chemical Science, 2024)
